31 molecules from patent publication US8232308B2, “Methods for treating a disease in which Rho kinase is involved” (UBE Industries, Ltd., priority 2003, dated 2012) can be followed below.

Structures can show the parent of a compound that is named as a salt.

The target of this assay is T1, activated ROCK II (Rattus norvegicus, UniProt Q62868).
T1 construct: purchased Upstate Biotechnology 14-338
T1 sequence (Q62868 11-550 limits assumed): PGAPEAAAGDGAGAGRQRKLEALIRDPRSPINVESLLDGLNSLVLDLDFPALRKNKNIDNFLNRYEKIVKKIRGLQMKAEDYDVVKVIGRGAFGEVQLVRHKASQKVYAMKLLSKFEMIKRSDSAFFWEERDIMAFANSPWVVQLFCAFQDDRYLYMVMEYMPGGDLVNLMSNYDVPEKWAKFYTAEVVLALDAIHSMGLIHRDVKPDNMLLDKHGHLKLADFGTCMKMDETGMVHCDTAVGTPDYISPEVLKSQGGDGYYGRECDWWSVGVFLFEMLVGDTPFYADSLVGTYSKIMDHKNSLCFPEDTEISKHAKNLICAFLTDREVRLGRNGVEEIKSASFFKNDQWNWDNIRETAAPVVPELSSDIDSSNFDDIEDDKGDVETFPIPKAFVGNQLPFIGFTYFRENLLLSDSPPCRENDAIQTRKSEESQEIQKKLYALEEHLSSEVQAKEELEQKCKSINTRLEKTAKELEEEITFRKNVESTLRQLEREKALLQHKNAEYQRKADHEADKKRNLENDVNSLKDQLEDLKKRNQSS
Briefly: Test for Evaluation of Inhibiting Activity to Rho Kinase. The note with it: S6 Kinase Substrate Peptide, [γ-32P]ATP, 30° C. for 15 minutes, Ki=IC50/(1+S/Km). It counts as biochemical. As to the method: In order to find the utility of the present invention compound, a Rho kinase inhibiting activity of the present invention compound was evaluated. The details thereof will be illustrated under the item of “Pharmacological Test (Test for Evaluation of Rho Kinase Inhibiting Activity)” in the Examples which will be mentioned later. The evaluation of the Rho kinase inhibiting activity of the present invention compound was carried out in accordance with the methods mentioned in J. Biol. Chem., 274, 32418 (1999) by Kaibuchi, et al. and mentioned in the instruction manual for use attached to the commercially available activated ROCK II [Upstate Biotechnology, Catalog No. 14-338 (5 units/50 μl)].
A. Test for Evaluation of Inhibiting Activity to Rho Kinase
In order to test the usefulness of the compounds of the present invention as a Rho kinase inhibitor, inhibiting activities of the compounds of the present invention to Rho kinase were evaluated and investigated in accordance with the methods of Kaibuchi, et al. mentioned in J. Biol. Chem., 274, 32418, 1999 and also with the methods mentioned in the instruction manual for use attached to commercially available activated ROCK II [Upstate Biotechnology, Catalog No. 14-338, (5 unite/50 μl)]. With regard to the test compounds, the compounds 5-1 to 5-73 (except the compounds 5-2, 5-9, 5-18, 5-37 and 5-38) were used.
A buffer was prepared so as to make tris(hydroxymethyl)aminomethane (Tris) (pH 7.5), 50 mM, ethyleneglycol bis(β-aminoethyl ether)-N,N,N′,N′-tetraacetic acid (EGTA), 2 mM, ethylenediaminetetraacetic acid (EDTA), 1 mM, magnesium chloride (MgCl2) 5 mM, β-glycerol phosphate, 5 mM, and dithiothreitol (DTT), 2 mM, by mixing them.
A mixed liquid of a 10 mM ATP solution with a commercially available [γ-^32P]ATP solution [NEN, Code No. NEG-002A] was diluted with the buffer to prepare a 300 μM ATP [γ-^32P]ATP solution.
A Commercially Available Activated ROCK II [Upstate Biotechnology, Catalog No. 14-338, (5 Units/50 μl)] was diluted to a concentration of 1/100 with the buffer to prepare an activated ROCK II solution.
A S6 Kinase Substrate Peptide [Upstate Biotechnology, Catalog No. 12-124,] (2 mg) was dissolved in distilled water to prepare a 1 mM substrate solution.
A test compound was dissolved in 10% aqueous dimethyl sulfoxide solution.
1) The test compound solution is placed in a microtube.
2) The 300 μM ATP [γ-^32P]ATP solution is added to the microtube followed by cooling to 4° C.
3) After that, a permanently activated ROCK II solution, 1 mM substrate solution and buffer are added to each microtube in that order, and the whole is mixed and cooled again at 4° C.
4) The microtube is placed in an incubator (30° C.) and the mixture is subjected to reaction for 15 minutes.
5) After cooling to 4° C., a 250 mM phosphoric acid solution (5 μl) is added to each microtube to stop the reaction.
6) The reaction solution (30 μl) is taken out from each microtube and spotted on a filter paper (Whatman P81) so that the reaction product (phosphorylated substrate) is adsorbed to the filter paper.
7) The filter paper is transferred to a beaker in which a 75 mM phosphoric acid solution is placed and shaken for 5 minutes so that unreacted [γ-^32P]AfP is washed out. The washing operation as such is carried out four times.
8) After that, the filter paper is dipped in ethanol to dehydrate and energy amount (radioactivity) of the reaction product adsorbed to the filter paper is measured with a liquid scintillation counter.
The IC50 value was calculated by an XL-fit (IDBS).
The Ki value is calculated by the following formula. S is an ATP concentration contained in the reaction solution while Km is a Michaelis-Menten constant. Ki=IC50/(1+S/Km)
Usually Ki stands for the dissociation constant of the complex between target and ligand, obtained from inhibition or displacement. In the case of `CC(C)(N)c1ccc(-c2ccc3[nH]ncc3c2)cc1` [Compound 5-1, 5-[4-(1-amino-1-methylethyl)phenyl]-1H-indazole dihydrochloride], affinity was put at a Ki of 0.019 µM.
Under `CC(C)(N)c1ccc(-c2ccc3[nH]nc(C=NO)c3c2)cc1` [Compound 5-12, 5-[4-(1-Amino-1-methylethyl)phenyl]-3-hydroxyimino-methyl-1H-indazole monohydrochloride] stands 0.0075 µM; under `CC(C)(N)c1ccc(-c2ccc3[nH]nc(N)c3c2)cc1` [Compound 5-11, 3-Amino-5-[4-(1-amino-1-methylethyl)phenyl]-1H-indazole trihydrochloride], 0.144 µM.
Molecule `CC(C)(N)c1ccc(-c2ccc3[nH]nc(CO)c3c2)cc1` [Compound 5-14, 5-[4-(1-Amino-1-methylethyl)phenyl]-3-hydroxymethyl-1H-indazole dihydrochloride] returned a Ki of 0.142 µM. The Ki values of the last two molecules are within 1.5-fold of each other.
`CC(C)(N)c1ccc(-c2ccc3[nH]ncc3c2-c2cn[nH]c2)cc1` [Compound 5-64, 5-[4-(1-Amino-1-methylethyl)phenyl]-4-(pyrazol-4-yl)-1H-indazole trihydrochloride] gave a Ki of 0.0044 µM.
Under `CC(C)(N)c1ccc(-c2ccc3[nH]ncc3c2-c2ccncc2)cc1` [Compound 5-61, 5-[4-(1-Amino-1-methylethyl)phenyl]-4-(pyridin-4-yl)-1H-indazole trihydrochloride] stands 0.045 µM; under `CCN(CC)c1c(-c2ccc(C(C)(C)N)cc2)ccc2[nH]ncc12` [Compound 5-31, 5-[4-(1-Amino-1-methylethyl)phenyl]-4-diethylamino-1H-indazole trihydrochloride], 0.614 µM; under `COC(=O)c1n[nH]c2ccc(-c3ccc(C(C)(C)N)cc3)cc12` [Compound 5-8, 5-[4-(1-Amino-1-methylethyl)phenyl]-3-methoxy-carbonyl-1H-indazole dihydrochloride], 0.097 µM.
The molecule `CC(C)(N)c1ccc(-c2ccc3[nH]ncc3c2CO)cc1` [Compound 5-35, 5-[4-(1-Amino-1-methylethyl)phenyl]-4-hydroxymethyl-1H-indazole dihydrochloride] showed a Ki of 0.139 µM.
Regarding `CC(C)(N)c1ccc(-c2ccc3[nH]ncc3c2[N+](=O)[O-])nc1` [Compound 5-17, 5-[5-(1-Amino-1-methylethyl)pyridin-2-yl]-4-nitro-1H-indazole dihydrochloride], the affinity corresponds to a Ki of 0.199 µM.
In turn, `CC(C)(N)c1ccc(-c2ccc3[nH]ncc3c2[N+](=O)[O-])cc1` [Compound 5-4, 5-[4-(1-Amino-1-methylethyl)phenyl]-4-nitro-1H-indazole monohydrochloride] showed a Ki of 0.028 µM.
Take `CC(C)(N)c1ccc(-c2ccc3[nH]ncc3c2O)nc1` [Compound 5-69, 5-[5-(1-Amino-1-methylethyl)pyridin-2-yl]-4-hydroxy-1H-indazole trihydrochloride]: the Ki was 0.055 µM.
`CC(C)(N)c1ccc(-c2ccc3[nH]ncc3c2C#N)cc1` [Compound 5-36, 5-[4-(1-Amino-1-methylethyl)phenyl]-4-cyano-1H-indazole monohydrochloride]: the Ki stood at 0.035 µM.
Take `CCc1c(-c2ccc(C(C)(C)N)cn2)ccc2[nH]ncc12` [Compound 5-28, 5-[5-(1-Amino-1-methylethyl)pyridin-2-yl]-4-ethyl-1H-indazole trihydrochloride]: the inhibition constant Ki was found to be 0.015 µM.
In turn, `CC(C)(N)c1ccc(-c2ccc3[nH]ncc3c2OC(F)F)cc1` [Compound 5-53, 5-[4-(1-Amino-1-methylethyl)phenyl]-4-difluoro-methoxy-1H-indazole dihydrochloride] registered an inhibitory constant (Ki) of 0.0036 µM.
As to `COc1c(-c2ccc(C3(N)CCCC3)cn2)ccc2[nH]ncc12` [Compound 5-46, 5-[5-(1-Aminocyclopentyl)pyridin-2-yl]-4-methoxy-1H-indazole trihydrochloride], the Ki was found to be 0.027 µM. This Ki is about 7.5-fold higher than that of the molecule before.
`CC(C)(N)c1ccc(-c2ccc3[nH]ncc3c2-c2cn[nH]c2)nc1` [Compound 5-65, 5-[5-(1-Amino-1-methylethyl)pyridin-2-yl]-4-(pyrazol-4-yl)-1H-indazole tetrahydrochloride] showed a Ki of 0.056 µM.
On to `CCOc1c(-c2ccc(C(C)(C)N)cn2)ccc2[nH]ncc12` [Compound 5-47, 5-[5-(1-Amino-1-methylethyl)pyridin-2-yl]-4-ethoxy-1H-indazole trihydrochloride], for which the Ki turned out to be 0.045 µM. This Ki and that of the molecule before are within 1.5-fold of each other.
As for `CC(C)(N)c1ccc(-c2ccc3[nH]ncc3c2CCO)cc1` [Compound 5-32, 5-[4-(1-Amino-1-methylethyl)phenyl]-4-(2-hydroxy-ethyl)-1H-indazole dihydrochloride], the Ki was 0.047 µM.
The molecule `CCC(N)(CC)c1ccc(-c2ccc3[nH]ncc3c2OC)nc1` [Compound 5-51, 5-[5-(1-Amino-1-ethylpropyl)pyridin-2-yl]-4-methoxy-1H-indazole trihydrochloride] came in with a Ki of 0.038 µM. This Ki and that of the molecule before are within 1.5-fold of each other.
Under `COc1c(-c2ccc(C(C)(C)N)cc2)ccc2[nH]ncc12` [Compound 5-44, 5-[4-(1-Amino-1-methylethyl)phenyl]-4-methoxy-1H-indazole dihydrochloride] stands 0.013 µM; under `CC(C)(N)c1ccc(-c2ccc3[nH]nc(C(N)=O)c3c2)cc1` [Compound 5-10, 3-Aminocarbonyl-5-[4-(1-amino-1-methylethyl)phenyl]-1H-indazole monohydrochloride], 0.134 µM.
Take `CCCCOc1c(-c2ccc(C(C)(C)N)cc2)ccc2[nH]ncc12` [Compound 5-55, 5-[4-(1-Amino-1-methylethyl)phenyl]-4-n-butoxy-1H-indazole dihydrochloride]: the affinity corresponds to a Ki of 0.013 µM. Compared with the last molecule, the Ki is about 10-fold lower.
Under `Nc1c(-c2ccc(C3(N)CCCC3)cc2)ccc2[nH]ncc12` [Compound 5-21, 4-Amino-5-[4-(1-aminocyclopentyl)phenyl]-1H-indazole dihydrochloride] stands 0.026 µM; under `CCOc1c(-c2ccc(C(N)(CC)CC)cn2)ccc2[nH]ncc12` [Compound 5-60, 5-[5-(1-Amino-1-ethylpropyl)pyridin-2-yl]-4-ethoxy-1H-indazole trihydrochloride], 0.035 µM; under `CCCOc1c(-c2ccc(C(C)(C)N)cn2)ccc2[nH]ncc12` [Compound 5-58, 5-[5-(1-Amino-1-methylethyl)pyridin-2-yl]-4-n-propoxy-1H-indazole trihydrochloride], 0.039 µM.
With `C=CCOc1c(-c2ccc(C(C)(C)N)cc2)ccc2[nH]ncc12` [Compound 5-57, 4-Allyloxy-5-[4-(1-amino-1-methylethyl)phenyl]-1H-indazole dihydrochloride], the Ki was 0.023 µM.
Consider `CN(C)c1c(-c2ccc(C3(N)CCCC3)cc2)ccc2[nH]ncc12` [Compound 5-24, 5-[4-(1-Aminocyclopentyl)phenyl]-4-dimethylamino-1H-indazole trihydrochloride], for which the affinity corresponds to a Ki of 0.014 µM.
`CC(C)(N)c1ccc(-c2ccc3[nH]ncc3c2-c2cnco2)cc1` [Compound 5-66, 5-[4-(1-Amino-1-methylethyl)phenyl]-4-(oxazol-5-yl)-1H-indazole dihydrochloride] returned a Ki of 0.0026 µM.
On to `CC(C)(N)c1ccc(-c2ccc3[nH]ncc3c2-n2cccc2)cc1` [Compound 5-39, 5-[4-(1-Amino-1-methylethyl)phenyl]-4-(pyrrol-1-yl)-1H-indazole dihydrochloride], for which the affinity, expressed as Ki, was 0.012 µM.
Turning to `CC(C)Oc1c(-c2ccc(C(C)(C)N)cc2)ccc2[nH]ncc12` [Compound 5-40, 5-[4-(1-Amino-1-methylethyl)phenyl]-4-isopropoxy-1H-indazole dihydrochloride], the Ki was found to be 0.033 µM.
